In assay [1] the target is T1, Sentrin-specific protease 7 (Homo sapiens, UniProt Q9BQF6).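 Note: Luminescence-based dose-response confirmation of ultra-high-throughput screening hits, measuring inhibition of SENP7.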
T1 sequence (Q9BQF6 whole entry): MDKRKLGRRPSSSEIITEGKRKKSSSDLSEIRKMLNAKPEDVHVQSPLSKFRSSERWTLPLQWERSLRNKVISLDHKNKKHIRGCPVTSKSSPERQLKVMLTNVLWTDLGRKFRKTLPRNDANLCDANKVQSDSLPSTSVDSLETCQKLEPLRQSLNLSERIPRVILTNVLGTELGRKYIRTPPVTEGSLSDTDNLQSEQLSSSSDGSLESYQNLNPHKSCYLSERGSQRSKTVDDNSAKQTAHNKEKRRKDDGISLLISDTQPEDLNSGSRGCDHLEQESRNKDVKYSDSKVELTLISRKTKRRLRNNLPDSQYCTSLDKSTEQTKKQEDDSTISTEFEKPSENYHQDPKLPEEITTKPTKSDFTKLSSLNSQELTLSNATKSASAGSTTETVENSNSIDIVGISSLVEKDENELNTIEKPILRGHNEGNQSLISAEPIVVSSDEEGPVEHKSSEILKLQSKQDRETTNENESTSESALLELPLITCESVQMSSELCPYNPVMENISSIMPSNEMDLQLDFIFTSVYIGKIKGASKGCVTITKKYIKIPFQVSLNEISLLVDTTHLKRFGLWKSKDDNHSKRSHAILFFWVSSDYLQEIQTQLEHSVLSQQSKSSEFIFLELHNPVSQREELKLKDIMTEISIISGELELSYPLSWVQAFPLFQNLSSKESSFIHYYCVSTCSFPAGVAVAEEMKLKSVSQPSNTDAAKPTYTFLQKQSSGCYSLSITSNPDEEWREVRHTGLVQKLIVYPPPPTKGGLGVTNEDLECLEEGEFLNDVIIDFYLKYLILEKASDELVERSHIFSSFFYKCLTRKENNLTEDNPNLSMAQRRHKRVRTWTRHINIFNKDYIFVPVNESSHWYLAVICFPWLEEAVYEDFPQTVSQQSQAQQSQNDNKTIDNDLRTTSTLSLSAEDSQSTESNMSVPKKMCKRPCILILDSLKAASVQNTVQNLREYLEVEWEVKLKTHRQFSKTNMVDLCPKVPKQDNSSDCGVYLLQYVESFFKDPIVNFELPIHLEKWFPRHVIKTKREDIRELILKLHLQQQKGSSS
Format: functional.

Assay [2] concerns the target T2, Rac GTPase-activating protein 1 (Homo sapiens, UniProt Q9H0H5).
T2 sequence (Q9H0H5 whole entry): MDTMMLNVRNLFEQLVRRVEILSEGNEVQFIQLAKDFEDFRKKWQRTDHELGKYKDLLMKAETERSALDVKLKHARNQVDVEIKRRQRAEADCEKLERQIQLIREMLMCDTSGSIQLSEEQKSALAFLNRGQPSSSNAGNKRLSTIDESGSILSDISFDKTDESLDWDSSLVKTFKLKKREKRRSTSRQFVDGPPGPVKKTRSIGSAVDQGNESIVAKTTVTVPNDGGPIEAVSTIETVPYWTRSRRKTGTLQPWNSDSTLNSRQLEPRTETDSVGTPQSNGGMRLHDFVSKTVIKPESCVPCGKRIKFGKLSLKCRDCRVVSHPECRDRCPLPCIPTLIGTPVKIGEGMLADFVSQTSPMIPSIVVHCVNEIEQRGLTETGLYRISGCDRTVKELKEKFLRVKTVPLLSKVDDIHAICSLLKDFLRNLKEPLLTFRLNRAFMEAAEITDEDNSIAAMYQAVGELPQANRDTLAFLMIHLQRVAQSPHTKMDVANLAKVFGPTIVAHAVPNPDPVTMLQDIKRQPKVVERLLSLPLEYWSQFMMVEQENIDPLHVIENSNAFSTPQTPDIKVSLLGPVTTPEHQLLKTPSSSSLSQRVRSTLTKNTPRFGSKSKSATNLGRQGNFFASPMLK
Briefly: blockers of MgcRacGAP-driven Rac1 GTP hydrolysis – biochemical, ADP Hunter fluorescence, primary and confirmatory, confirmation (AID 624330). Format: functional.

The target of assay [3] is T3, Sentrin-specific protease 6 (Homo sapiens, UniProt Q9GZR1).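 Note: Luminescence-based dose-response confirmatory assay of SENP6 inhibition, following up an ultra-high-throughput screen.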
T3 sequence (Q9GZR1 whole entry): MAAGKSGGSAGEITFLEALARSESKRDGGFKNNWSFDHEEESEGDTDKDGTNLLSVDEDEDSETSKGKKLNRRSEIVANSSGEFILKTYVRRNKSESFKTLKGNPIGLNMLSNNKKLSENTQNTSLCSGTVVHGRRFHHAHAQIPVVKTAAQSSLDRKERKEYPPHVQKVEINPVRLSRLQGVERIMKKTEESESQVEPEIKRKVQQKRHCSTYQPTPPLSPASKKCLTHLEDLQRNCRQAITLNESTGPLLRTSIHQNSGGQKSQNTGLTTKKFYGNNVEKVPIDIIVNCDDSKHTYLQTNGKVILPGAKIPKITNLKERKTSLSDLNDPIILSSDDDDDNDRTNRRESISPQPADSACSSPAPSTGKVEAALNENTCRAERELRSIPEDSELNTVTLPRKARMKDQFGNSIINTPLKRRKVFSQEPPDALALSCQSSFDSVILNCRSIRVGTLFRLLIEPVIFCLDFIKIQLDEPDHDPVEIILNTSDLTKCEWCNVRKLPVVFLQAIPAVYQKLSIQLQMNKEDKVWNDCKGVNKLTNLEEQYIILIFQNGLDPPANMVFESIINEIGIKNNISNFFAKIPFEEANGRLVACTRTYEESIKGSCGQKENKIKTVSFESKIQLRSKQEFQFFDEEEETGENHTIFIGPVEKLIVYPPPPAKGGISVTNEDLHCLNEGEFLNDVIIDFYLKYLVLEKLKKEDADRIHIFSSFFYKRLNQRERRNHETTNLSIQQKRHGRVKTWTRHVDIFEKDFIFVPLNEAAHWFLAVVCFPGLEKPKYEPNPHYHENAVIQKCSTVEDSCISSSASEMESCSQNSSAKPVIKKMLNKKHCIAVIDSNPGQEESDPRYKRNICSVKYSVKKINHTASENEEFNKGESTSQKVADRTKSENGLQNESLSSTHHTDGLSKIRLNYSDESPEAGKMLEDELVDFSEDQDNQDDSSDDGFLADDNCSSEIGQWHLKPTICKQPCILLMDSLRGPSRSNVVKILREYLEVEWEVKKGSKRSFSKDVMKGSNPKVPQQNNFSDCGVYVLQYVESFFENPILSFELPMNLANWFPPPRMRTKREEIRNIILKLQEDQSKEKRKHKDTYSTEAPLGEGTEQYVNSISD
The class given is functional.

Assay [4] addresses T4, Caspase-3 (Homo sapiens, UniProt P42574).
T4 sequence (P42574 whole entry): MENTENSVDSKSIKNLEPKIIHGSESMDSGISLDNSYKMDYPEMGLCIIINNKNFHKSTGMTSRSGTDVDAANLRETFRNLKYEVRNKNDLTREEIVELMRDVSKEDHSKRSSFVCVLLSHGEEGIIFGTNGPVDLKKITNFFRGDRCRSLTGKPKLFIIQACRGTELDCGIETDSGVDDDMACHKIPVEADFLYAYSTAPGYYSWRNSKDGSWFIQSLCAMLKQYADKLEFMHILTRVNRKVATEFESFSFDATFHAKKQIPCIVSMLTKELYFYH
Format: functional.

In assay [5] the target is T5, Sentrin-specific protease 8 (Homo sapiens, UniProt Q96LD8).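 Note: luminescence read-out of SENP8 inhibition, dose-response confirmation following an ultra-high-throughput screen.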
T5 sequence (Q96LD8 whole entry): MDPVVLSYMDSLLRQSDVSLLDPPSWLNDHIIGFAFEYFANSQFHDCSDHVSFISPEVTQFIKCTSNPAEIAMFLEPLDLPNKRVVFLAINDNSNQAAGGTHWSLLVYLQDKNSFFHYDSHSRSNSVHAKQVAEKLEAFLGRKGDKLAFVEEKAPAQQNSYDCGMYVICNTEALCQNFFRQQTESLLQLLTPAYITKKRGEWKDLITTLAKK
Format: functional.

A short description of assay [6]: viability loss in HeLa cells – cytotoxicity control for MgcRacGAP inhibitor project, dose response (AID 624300). The class given is functional.
In assay [7] the target is Beta-lactamase (Pseudomonas aeruginosa, UniProt Q79MP6).
Assay [8] deals with T6, Insulin-degrading enzyme (Homo sapiens, UniProt P14735).
T6 sequence (P14735 whole entry): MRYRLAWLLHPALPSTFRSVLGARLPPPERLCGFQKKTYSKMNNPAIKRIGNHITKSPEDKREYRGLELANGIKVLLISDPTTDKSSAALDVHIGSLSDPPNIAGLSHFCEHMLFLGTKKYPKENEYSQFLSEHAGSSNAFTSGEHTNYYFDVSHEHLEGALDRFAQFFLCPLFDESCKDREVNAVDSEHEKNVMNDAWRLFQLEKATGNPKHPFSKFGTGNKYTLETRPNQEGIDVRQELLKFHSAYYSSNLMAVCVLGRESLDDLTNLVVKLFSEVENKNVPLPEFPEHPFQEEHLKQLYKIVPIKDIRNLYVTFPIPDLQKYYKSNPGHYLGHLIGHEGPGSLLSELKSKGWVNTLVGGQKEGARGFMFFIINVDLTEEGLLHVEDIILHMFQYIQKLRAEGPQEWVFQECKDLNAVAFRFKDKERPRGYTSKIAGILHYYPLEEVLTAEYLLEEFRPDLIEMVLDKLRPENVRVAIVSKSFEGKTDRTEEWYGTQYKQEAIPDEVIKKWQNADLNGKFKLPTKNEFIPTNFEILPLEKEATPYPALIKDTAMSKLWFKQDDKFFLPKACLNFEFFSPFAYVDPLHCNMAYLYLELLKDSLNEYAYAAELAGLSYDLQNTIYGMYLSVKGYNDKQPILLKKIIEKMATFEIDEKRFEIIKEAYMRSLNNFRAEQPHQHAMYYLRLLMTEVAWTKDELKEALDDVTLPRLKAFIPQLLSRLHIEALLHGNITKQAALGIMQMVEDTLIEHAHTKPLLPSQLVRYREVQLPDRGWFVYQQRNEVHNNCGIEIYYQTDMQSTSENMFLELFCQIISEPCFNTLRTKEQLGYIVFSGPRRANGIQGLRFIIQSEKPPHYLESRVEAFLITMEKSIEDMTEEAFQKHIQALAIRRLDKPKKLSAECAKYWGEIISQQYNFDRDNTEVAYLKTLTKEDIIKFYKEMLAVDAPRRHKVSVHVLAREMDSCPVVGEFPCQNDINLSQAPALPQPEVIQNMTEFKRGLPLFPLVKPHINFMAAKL
Briefly: recombinant IDE activation, cell-free – biochemical, fluorescence polarization, counter-screen for IDE activator project, dose response (AID 588681). A general note: Fluorescence polarisation rises when a labelled molecule tumbles more slowly, as on binding a larger partner.

In assay [9] the test system is HEK293. Briefly: membrane integrity loss in HEK cells – cell-based, fluorescence, cytotoxicity control for IDE activator project, dose response (AID 588440).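 Note: cytotoxicity by LDH release measuring loss of membrane integrity.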 Format: functional. The conditions noted are these: Homo sapiens.
The subject of assay [10] is HEK293. Briefly: optical interference in Abeta FP readout, dose response, artefact control for IDE activator project, biochemical, fluorescence polarization (AID 588442). The class given is functional, cell-based. To be noted: Homo sapiens.
The target in assay [11] is T6, Insulin-degrading enzyme. Briefly: cellular IDE activation of Abeta substrate cleavage – fluorescence polarization, HEK cells, dose response (AID 588439). Format: functional, cell-based.
The target in assay [12] is T7, ORF 73 (Human herpesvirus 8, UniProt O40947).
T7 sequence (O40947 whole entry): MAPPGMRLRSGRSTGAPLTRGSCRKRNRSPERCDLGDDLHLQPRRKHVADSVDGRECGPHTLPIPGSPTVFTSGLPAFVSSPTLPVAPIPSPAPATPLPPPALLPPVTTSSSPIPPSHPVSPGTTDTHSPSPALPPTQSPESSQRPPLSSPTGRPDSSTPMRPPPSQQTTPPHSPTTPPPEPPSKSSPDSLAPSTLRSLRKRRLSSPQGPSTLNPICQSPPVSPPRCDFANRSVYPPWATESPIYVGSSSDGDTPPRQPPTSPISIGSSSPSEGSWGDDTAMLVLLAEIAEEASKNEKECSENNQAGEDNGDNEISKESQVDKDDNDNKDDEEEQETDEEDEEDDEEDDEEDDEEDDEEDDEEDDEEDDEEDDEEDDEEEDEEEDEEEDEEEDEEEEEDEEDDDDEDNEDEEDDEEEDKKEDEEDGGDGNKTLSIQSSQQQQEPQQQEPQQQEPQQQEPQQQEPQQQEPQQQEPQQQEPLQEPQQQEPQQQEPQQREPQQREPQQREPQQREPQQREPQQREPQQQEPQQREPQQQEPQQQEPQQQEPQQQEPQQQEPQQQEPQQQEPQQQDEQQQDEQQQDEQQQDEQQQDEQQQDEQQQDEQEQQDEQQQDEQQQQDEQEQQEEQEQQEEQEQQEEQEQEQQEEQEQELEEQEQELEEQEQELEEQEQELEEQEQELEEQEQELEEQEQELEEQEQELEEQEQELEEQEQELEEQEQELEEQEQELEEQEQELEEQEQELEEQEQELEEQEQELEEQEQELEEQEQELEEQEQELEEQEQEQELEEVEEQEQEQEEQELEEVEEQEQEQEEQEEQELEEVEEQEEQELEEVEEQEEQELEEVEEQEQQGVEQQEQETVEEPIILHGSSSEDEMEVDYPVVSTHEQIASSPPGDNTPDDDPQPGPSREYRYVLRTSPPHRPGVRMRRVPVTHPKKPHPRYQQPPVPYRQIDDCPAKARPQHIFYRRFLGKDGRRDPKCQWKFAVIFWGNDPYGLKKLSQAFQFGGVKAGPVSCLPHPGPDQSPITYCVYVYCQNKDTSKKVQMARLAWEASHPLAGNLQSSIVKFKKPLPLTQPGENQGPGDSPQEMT
Briefly: KSHV LANA DNA-binding disruption – biochemical, fluorescence polarization, cherry-picked samples, dose response (AID 504725).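 Note: fluorescence polarization of a labeled DNA duplex reporting LANA DNA binding; potency is for inhibitors that block LANA binding to the DNA.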 On the set-up: species or system Human gammaherpesvirus 8.

Assay [13] addresses Beta-lactamase (Salmonella choleraesuis (strain SC-B67), UniProt Q5J463).

Calls of active or inactive are those of the source.

Beta-lactamase (Salmonella choleraesuis (strain SC-B67), UniProt Q5J463), sequence (Q5J463 whole entry): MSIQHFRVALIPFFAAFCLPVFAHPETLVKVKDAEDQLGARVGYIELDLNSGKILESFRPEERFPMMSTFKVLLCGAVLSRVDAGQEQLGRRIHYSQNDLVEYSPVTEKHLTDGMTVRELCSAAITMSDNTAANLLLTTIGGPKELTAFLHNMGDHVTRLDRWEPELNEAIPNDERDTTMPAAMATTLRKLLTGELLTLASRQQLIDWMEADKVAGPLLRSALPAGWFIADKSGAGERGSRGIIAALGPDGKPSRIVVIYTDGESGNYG
Beta-lactamase (Pseudomonas aeruginosa, UniProt Q79MP6), sequence (Q79MP6 whole entry): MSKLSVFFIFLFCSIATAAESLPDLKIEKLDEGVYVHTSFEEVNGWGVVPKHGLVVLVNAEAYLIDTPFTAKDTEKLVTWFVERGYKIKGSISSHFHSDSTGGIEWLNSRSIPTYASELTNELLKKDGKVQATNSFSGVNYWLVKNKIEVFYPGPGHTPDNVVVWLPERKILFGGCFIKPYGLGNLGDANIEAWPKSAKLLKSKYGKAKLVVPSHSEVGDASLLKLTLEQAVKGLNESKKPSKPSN

As usually defined, the IC50 is the concentration at which inhibition is half-maximal. As a reminder, the CC50 is the concentration that lowers cell viability or growth by half. Regarding `COc1ccc(NC(=O)n2ncc3cc(Cl)ccc32)cc1OC`, the concentration for half-maximal inhibition (IC50) in [1] is 6.04 µM (active); in assay [2], 230 µM (active); in assay [3], 15.1 µM (active); in assay [4] it was 25.5 µM (active); in assay [5], 20.3 µM (active). In addition, the CC50 in [6] is 100 µM (active).
The EC50 is the concentration at which the effect is half-maximal. Usually AC50 stands for the midpoint of the concentration-response curve, whichever way the signal moves. For `CC(=O)Oc1ccc2c(c1)Oc1cc(OC(C)=O)ccc1C21OC(=O)c2ccccc21` [FLUORESCEIN DIACETATE], the IC50 in assay [7] is > 59.6 µM (inactive); in [9], > 89.2 µM (inactive); in assay [13] it was > 59.6 µM (inactive). Besides, the EC50 in assay [8], in [10] and in [11] was > 54.7 µM (inactive) each time. Besides, in assay [12], the half-maximal activity concentration (AC50) was 0.042 µM (active).

For the origin of these results see ChEMBL document CHEMBL1201862, “PubChem BioAssay data set” (2004).
